From patent publication US20020103261A1, “Compositions for injection or intravenous administration for the treatment of internal infection or inflammation in humans and animals” (priority 2000, published 2002)

Key:
[1] = inactive metabolites after enzymatic degradation; cited from earlier work
Solubility in lipids = type: physicochemical

| SMILES | metabolites expired from the lungs in the form of CO2 [1] | metabolites excreted in the urine [1] | solubility in lipids (Solubility in lipids) |
| --- | --- | --- | --- |
| Cc1ccc(C(C)C)c(O)c1 [isopropyl-cresol, 5-methyl-2[1-methylethyl]phenol] | 10% |  |  |
| Cc1ccc(C(C)C)cc1O [isopropyl-o-cresol, 5-isopropyl-2-methylphenol] | 10% | approx. 90% | soluble in lipids |
